Measurements from patent publication US10208059B2, “Heterocyclic modulators of HIF activity for treatment of disease” (Board of Regents, University of Texas System, priority 2012, dated 2019).

Test system: 293T-HRE-GFP-luc cells
Assay: Cell-based reporter assay for IC50 determinations
Conditions: hypoxia 6 hrs (1% O2), luminescence, read-out: IC50 Classification
Summary of the method: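 Cells carrying an HRE-driven GFP-luciferase reporter, seeded at 12,000/well and held overnight, then given 1:3 serial compound dilutions (DMSO, further diluted 1:50 in medium). After 30 min in normoxia, plates held 6 h in hypoxia (1% O2, 37 °C); luciferase luminescence read, IC50 by four-parameter logistic fit.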

COc1ccc(Cn2nc(-c3nc(-c4ccc(OC(F)(F)F)cc4)no3)nc2C)cc1C(F)(F)F [Example 112, 5-(1-(4-methoxy-3-(trifluoromethyl)benzyl)-5-methyl-1H-1,2,4-triazol-3-yl)-3-(4-(trifluoromethoxy)phenyl)-1,2,4-oxadiazole]
IC50: 1000 to 10000 nM

Cc1nc(-c2nc(-c3ccc(OC(F)(F)F)cc3)no2)nn1Cc1ccc2ccccc2n1 [Example 113, 5-(5-methyl-1-(quinolin-2-ylmethyl)-1H-1,2,4-triazol-3-yl)-3-(4-(trifluoromethoxy)phenyl)-1,2,4-oxadiazole]
IC50: < 100 nM

Cc1nc(-c2nc(-c3ccc(OC(F)(F)F)cc3)no2)nn1Cc1ccc2c(c1)nnn2C [Example 114, 5-(5-methyl-1-((1-methyl-1H-benzo[d][1,2,3]triazol-5-yl)methyl)-1H-1,2,4-triazol-3-yl)-3-(4-(trifluoromethoxy)phenyl)-1,2,4-oxadiazole]
IC50: 100 to 1000 nM

COc1nccc(Cn2nc(-c3nc(-c4ccc(OC(F)(F)F)cc4)no3)nc2C)n1 [Example 115, 5-(1-((2-methoxypyrimidin-4-yl)methyl)-5-methyl-1H-1,2,4-triazol-3-yl)-3-(4-(trifluoromethoxy)phenyl)-1,2,4-oxadizole]
IC50: 1000 to 10000 nM

Cc1nc(-c2noc(-c3ccc(C(C)(C)C)cc3)n2)nn1Cc1cccc(N2CCN(C)CC2)c1 [Example 116, 5-(4-(tert-butyl)phenyl)-3-(5-methyl-1-(3-(4-methylpiperazin-1-yl)benzyl)-1H-1,2,4-triazol-3-yl)-1,2,4-oxadiazole]
IC50: < 100 nM

COCCCNc1nccc(Cn2nc(-c3nc(-c4ccc(OC(F)(F)F)cc4)no3)nc2C)n1 [Example 117, N-(3-methoxypropyl)-4-((5-methyl-3-(3-(4-(trifluoromethoxy)phenyl)-1,2,4-oxadiazol-5-yl)-1H-1,2,4-triazol-1-yl)methyl)pyrimidin-2-amine]
IC50: 100 to 1000 nM

Cc1nc(-c2nc(-c3ccc(OC(F)(F)F)cc3)no2)nn1Cc1cccc(C(N)=O)c1 [Example 118, 3-((5-methyl-3-(3-(4-(trifluoromethoxy)phenyl)-1,2,4-oxadiazol-5-yl)-1H-1,2,4-triazol-1-yl)methyl)benzamide]
IC50: < 100 nM

Cc1nc(-c2nc(-c3ccc(OC(F)(F)F)cc3)no2)nn1Cc1cccc(C(=O)O)c1 [Example 119, 3-((5-methyl-3-(3-(4-(trifluoromethoxy)phenyl)-1,2,4-oxadiazol-5-yl)-1H-1,2,4-triazol-1-yl)methyl)benzoic acid]
IC50: 100 to 1000 nM

CNC(=O)c1cccc(Cn2nc(-c3nc(-c4ccc(OC(F)(F)F)cc4)no3)nc2C)c1 [Example 120, N-methyl-3-[(5-methyl-3-{3-[4-(trifluoromethoxy)phenyl]-1,2,4-oxadiazol-5-yl}-1H-1 2 4-triazol-1-yl)methyl]benzamide]
IC50: < 100 nM

Cc1nc(-c2nc(-c3ccc(OC(F)(F)F)cc3)no2)nn1Cc1ccnc(N2CCCC2)n1 [Example 121, 4-[(5-methyl-3-{3-[4-(trifluoromethoxy)phenyl]-1,2,4-oxadiazol-5-yl}-1H-1,2,4-triazol-1-yl)methyl]-2-(pyrrolidin-1-yl)pyrimidine]
IC50: 100 to 1000 nM

Cc1nc(-c2nc(-c3ccc(OC(F)(F)F)cc3)no2)nn1Cc1cccc(C(=O)NC(C)C)c1 [Example 122, 3-[(5-methyl-3-{3-[4-(trifluoromethoxy)phenyl]-1,2,4-oxadiazol-5-yl}-1H-1,2,4-triazol-1-yl)methyl]-N-(propan-2-yl)benzamide]
IC50: < 100 nM

Cc1nc(-c2nc(-c3ccc(OC(F)(F)F)cc3)no2)nn1Cc1cccc(C(=O)N2CC(O)C2)c1 [Example 123, 1-{3-[(5-methyl-3-{3-[4-(trifluoromethoxy)phenyl]-1,2,4-oxadiazol-5-yl}-1H-1,2,4-triazol-1-yl)methyl]benzoyl}azetidin-3-ol]
IC50: < 100 nM

Cc1nc(-c2nc(-c3ccc(OC(F)(F)F)cc3)no2)nn1Cc1cccc(C(=O)NC2CC2)c1 [Example 124, N-cyclopropyl-3-[(5-methyl-3-{3-[4-(trifluoromethoxy]phenyl]-1,2,4-oxadiazol-5-yl}-1H-1,2,4-triazol-1-yl)methyl]benzamide]
IC50: < 100 nM

Cc1nc(-c2nc(-c3ccc(OC(F)(F)F)cc3)no2)nn1Cc1cccc(C(=O)NC(C)(C)CO)c1 [Example 125, N-(1-hydroxy-2-methylpropan-2-yl)-3-[(5-methyl-3-{3-[4-(trifluoromethoxy)phenyl]-1,2,4-oxadiazol-5-yl}-1H-1,2,4-triazol-1-yl)methyl]benzamide]
IC50: < 100 nM

Cc1nc(-c2nc(-c3ccc(OC(F)(F)F)cc3)no2)nn1Cc1cccc(OCCC(C)(C)O)c1 [Example 126, 2-methyl-4-{3-[(5-methyl-3-{3-[4-(trifluoromethoxy)phenyl]-1,2,4-oxadiazol-5-yl}-1H-1,2,4-triazol-1-yl)methyl]phenoxy}butan-2-ol]
IC50: < 100 nM

Cc1nc(-c2nc(-c3ccc(OC(F)(F)F)cc3)no2)nn1Cc1ccc(S(C)(=O)=O)cc1 [Example 127, 5-{1-[(4-methanesulfonylphenyl)methyl]-5-methyl-1H-1,2,4-triazol-3-yl}-3-[4-(trifluoromethoxy)phenyl]-1,2,4-oxadiazole]
IC50: 100 to 1000 nM

Cc1nc(-c2nc(-c3ccc(OC(F)(F)F)cc3)no2)nn1Cc1ccc(=O)n(CCN(C)C)c1 [Example 128, 1-[2-(dimethylamino)ethyl]-5-[(5-methyl-3-{3-[4-(trifluoromethoxy)phenyl]-1,2,4-oxadiazol-5-yl}-1H-1,2,4-triazol-1-yl)methyl]-1,2-dihydropyridin-2-one]
IC50: 100 to 1000 nM

COCCCOc1ccc(Cn2nc(-c3nc(-c4ccc(OC(F)(F)F)cc4)no3)nc2C)cn1 [Example 129, 2-(3-methoxypropoxy)-5-[(5-methyl-3-{3-[4-(trifluoromethoxy)phenyl]-1,2,4-oxadiazol-5-yl}-1H-1,2,4-triazol-1-yl)methyl]pyridine]
IC50: 100 to 1000 nM

Cc1nc(-c2nc(-c3ccc(OC(F)(F)F)cc3)no2)nn1Cc1cccc(S(=O)(=O)NC2CC2)c1 [Example 130, N-cyclopropyl-3-[(5-methyl-3-{3-[4-(trifluoromethoxy)phenyl]-1,2,4-oxadiazol-5-yl}-1H-1,2,4-triazol-1-yl)methyl]benzene-1-sulfonamide]
IC50: < 100 nM

Cc1nc(-c2nc(-c3ccc(OC(F)(F)F)cc3)no2)nn1Cc1cccc(S(=O)(=O)NCCO)c1 [Example 131, 2-hydroxy-S-(3-[(5-methyl-3-{3-[4-(trifluoromethoxy)phenyl]-1,2,4-oxadiazol-5-yl}-1H-1,2,4-triazol-1-yl)methyl]phenyl}ethane-1-sulfonamido]
IC50: < 100 nM

COC(=O)[C@@H](NS(=O)(=O)c1cccc(Cn2nc(-c3nc(-c4ccc(OC(F)(F)F)cc4)no3)nc2C)c1)C(C)C [Example 132, methyl (2S)-3-methyl-2-{3-[(5-methyl-3-{3-[4-(trifluoromethoxy)phenyl]-1,2,4-oxadiazol-5-yl}-1H-1,2,4-triazol-1-yl)methyl]benzenesulfonamido}butanoate]
IC50: 100 to 1000 nM

Cc1nc(-c2nc(-c3ccc(OC(F)(F)F)cc3)no2)nn1Cc1cccc(S(=O)(=O)N2CCCC2)c1 [Example 133, 5-(5-methyl-1-{[3-(pyrrolidine-1-sulfonyl)phenyl]methyl}-1H-1,2,4-triazol-3-yl)-3-[4-(trifluoromethoxy)phenyl]-1,2,4-oxadiazole]
IC50: < 100 nM

COC(=O)CNS(=O)(=O)c1cccc(Cn2nc(-c3nc(-c4ccc(OC(F)(F)F)cc4)no3)nc2C)c1 [Example 134, methyl 2-{3-[(5-methyl-3-{3-[4-(trifluoromethoxy)phenyl]-1,2,4-oxadiazol-5-yl}-1H-1,2,4-triazol-1-yl)methyl]benzenesulfonamido}acetate]
IC50: < 100 nM

COc1cc(Cn2nc(-c3nc(-c4ccc(OC(F)(F)F)cc4)no3)nc2C)ccn1 [Example 135, 2-methoxy-4-[(5-methyl-3-{3-[4-(trifluoromethoxy)phenyl]-1,2,4-oxadiazol-5-yl}-1H-1,2,4-triazol-1-yl)methyl]pyridine]
IC50: 100 to 1000 nM

CNS(=O)(=O)c1cccc(Cn2nc(-c3nc(-c4ccc(OC(F)(F)F)cc4)no3)nc2C)c1 [Example 136, N-methyl-3-[(5-methyl-3-{3-[4-(trifluoromethoxy)phenyl]-1,2,4-oxadiazol-5-yl}-1H-1,2,4-triazol-1-yl)methyl]benzene-1-sulfonamide]
IC50: < 100 nM

CCCNS(=O)(=O)c1cccc(Cn2nc(-c3nc(-c4ccc(OC(F)(F)F)cc4)no3)nc2C)c1 [Example 137, 3-[(5-methyl-3-{3-[4-(trifluoromethoxy)phenyl]-1,2,4-oxadiazol-5-yl}-1H-1,2,4-triazol-1-yl)methyl]-N-propylbenzene-1-sulfonamide]
IC50: < 100 nM

Cc1nc(-c2nc(-c3ccc(OC(F)(F)F)cc3)no2)nn1Cc1cccc(S(=O)(=O)NCC(C)(C)O)c1 [Example 138, 2-hydroxy-2-methyl-S-{3-[(5-methyl-3-{3-[4-(trifluoromethoxy)phenyl]-1,2,4-oxadiazol-5-yl}-1H-1,2,4-triazol-1-yl)methyl]phenyl}propane-1-sulfonamido]
IC50: < 100 nM

Cc1nc(-c2nc(-c3ccc(OC(F)(F)F)cc3)no2)nn1Cc1cccc(S(=O)(=O)NCC(N)=O)c1 [Example 139, 2-{3-[(5-methyl-3-{3-[4-(trifluoromethoxy)phenyl]-1,2,4-oxadiazol-5-yl}-1H-1,2,4-triazol-1-yl)methyl]benzenesulfonamido}acetamide]
IC50: 100 to 1000 nM

COCCCn1cc(Cn2nc(-c3nc(-c4ccc(OC(F)(F)F)cc4)no3)nc2C)ccc1=O [Example 140, 1-(3-methoxypropyl)-5-[(5-methyl-3-{3-[4-(trifluoromethoxy)phenyl]-1,2,4-oxadiazol-5-yl}-1H-1,2,4-triazol-1-yl)methyl]-1,2-dihydropyridin-2-one]
IC50: 100 to 1000 nM

Cc1nc(-c2nc(-c3ccc(OC(F)(F)F)cc3)no2)nn1Cc1ccnc(OCCCO)c1 [Example 141, 3-({4-[(5-methyl-3-{3-[4-(trifluoromethoxy)phenyl]-1,2,4-oxadiazol-5-yl}-1H-1,2,4-triazol-1-yl)methyl]pyridin-2-yl}oxy)propan-1-ol]
IC50: < 100 nM
